One compound from ChEMBL document CHEMBL6078680, “Improving the Stability and Anti-Infective Activity of Sea Turtle AMPs Using Multiple Structural Modification Strategies” (J Med Chem, 2024) can be followed below.

One may read the MIC as the lowest concentration that inhibits growth of the organism.

The subject of data set [1] is Enterococcus faecium. Nature of the data set: Antimicrobial activity against Enterococcus faecium 34 assessed as reduction in microbial growth incubated for 18 hrs by broth microdilution method. The format is functional. Background: In broth dilution the organism is exposed to a series of concentrations in liquid medium.
The subject of data set [2] is Escherichia coli. In words: Antimicrobial activity against Escherichia coli ATCC 25922 assessed as reduction in microbial growth incubated for 18 hrs by broth microdilution method. The format is functional.
Data set [3] relates to Acinetobacter baumannii. Nature of the data set: Antimicrobial activity against Acinetobacter baumannii ATCC19606 assessed as reduction in microbial growth incubated for 18 hrs by broth microdilution method. The format is functional.
Data set [4] deals with Pseudomonas aeruginosa. Nature of the data set: Antimicrobial activity against Pseudomonas aeruginosa CMCC10104 assessed as reduction in microbial growth incubated for 18 hrs by broth microdilution method. The format is functional.
Data set [5] has as its system Salmonella enteritidis. Nature of the data set: Antimicrobial activity against Salmonella enterica subsp. enterica serovar Enteritidis ATCC 14028 assessed as reduction in microbial growth incubated for 18 hrs by broth microdilution method. In kind it is functional.
A short description of data set [6]: Hemolytic activity at human Erythrocyte assessed as hemolysis at 100 microg/ml. The format is toxicity, cell-based. As to conditions: erythrocytes, at 100 µg/mL, read-out: Activity.
Data set [7] deals with Peritoneal macrophage. In words: Cytotoxicity against mouse Peritoneal macrophage cells assessed as survival rate at 100 microg/ml. In kind it is functional. The note with it: read-out: Survival.
For data set [8], the system named is HaCaT. In words: Cytotoxicity against human HaCaT cells assessed as survival rate at 100 microg/ml. In kind it is functional. As to conditions: read-out: Survival.
Data set [9] addresses Trypsin (Homo sapiens, UniProt P07477+P07478+P35030). Nature of the data set: Stability of compound assessed as trypsin (unknown origin) mediated drug degradation […] measured at 6 hrs by RP-HPLC analysis. In kind it is ADME, protein assay. As to conditions: read-out: Activity.
Data set [10] deals with Acinetobacter baumannii. In words: Antibiofilm activity against Acinetobacter baumannii ATCC 19606 assessed as inhibition of biofilm formation at 4 to 8 times MIC incubated for 48 hrs by crystal violet staining based analysis. In kind it is functional.
Data set [11] concerns Staphylococcus aureus. Nature of the data set: Antibiofilm activity against Staphylococcus aureus CMCC 26003 assessed as biofilm eradication at 0.5 to 2 times MIC incubated for 24 hrs by crystal violet staining based analysis. The format is functional.
The subject of data set [12] is Cell membrane. In words: Induction of […] membrane permeabilization in Escherichia coli ATCC 25922 at 5 times MIC measured for 1 hr by NPN-dye based fluorescence analysis. In kind it is subcellular.
The test system of data set [13] is Escherichia coli. In words: Antimicrobial activity against Escherichia coli ATCC 25922 assessed as fold increase in MIC incubated for 18 hrs in presence of LPS. The format is functional.
Data set [14] has as its system Acinetobacter baumannii. Nature of the data set: Antimicrobial activity against Acinetobacter baumannii ATCC 19606 assessed as fold increase in MIC incubated for 18 hrs in presence of LPS. The format is functional.
The test system of data set [15] is Escherichia coli. In words: Antimicrobial activity against Escherichia coli ATCC 25922 assessed as fold increase in MIC incubated for 18 hrs in presence of phosphatidylglycerol. In kind it is functional.
The subject of data set [16] is Acinetobacter baumannii. Nature of the data set: Antimicrobial activity against Acinetobacter baumannii ATCC 19606 assessed as fold increase in MIC incubated for 18 hrs in presence of phosphatidylglycerol. In kind it is functional.
Data set [17] has as its system Escherichia coli. Nature of the data set: Antimicrobial activity against Escherichia coli ATCC 25922 assessed as fold increase in MIC incubated for 18 hrs in presence of cardiolipin. In kind it is functional.
Data set [18] has as its system Acinetobacter baumannii. In words: Antimicrobial activity against Acinetobacter baumannii ATCC 19606 assessed as fold increase in MIC incubated for 18 hrs in presence of cardiolipin. In kind it is functional.
The test system of data set [19] is Staphylococcus aureus. In words: Antimicrobial activity against Staphylococcus aureus CMCC 26003 assessed as fold increase in MIC incubated for 18 hrs in presence of CCCP. In kind it is functional.
A short description of data set [20]: Acute toxicity in BALB/c mouse assessed as mortality at 15 mg/kg, iv measured for 24 hrs. In kind it is organism-based. The note with it: in vivo, read-out: Activity.
Data set [21] deals with Acinetobacter baumannii. Nature of the data set: In vivo antibacterial activity against Acinetobacter baumannii ATCC19606 infected in BALB/c mouse assessed as survival at 15 mg/kg, ip administered for 12 hrs and measured on day 7. The format is functional. The note with it: ATCC19606, 168 h, time 7 day.
Data set [22] deals with Acinetobacter baumannii. Nature of the data set: In vivo antibacterial activity against Acinetobacter baumannii ATCC19606 infected in BALB/c mouse assessed as reduction in bacterial load in liver at 15 mg/kg, ip measured after 12 hrs. In kind it is functional, organism-based.

Calls of active or inactive are those of the source. The rule behind the calls is not given here. Positions of bridges follow the written chain, without caps; N, C: chain ends. Residues, ends and D or L forms follow the SMILES beside them.

Consider `CC[C@H](C)[C@H](NC(=O)[C@H](CCCNC(=N)N)NC(=O)[C@H](CO)NC(=O)[C@@H]1CSSC[C@H](N)C(=O)N[C@@H](Cc2ccccc2)C(=O)N[C@@H](CCCCN)C(=O)N[C@@H](CCCCN)C(=O)N[C@@H](C(C)C)C(=O)N[C@@H](CCCNC(=N)N)C(=O)N[C@@H](CCCCN)C(=O)N[C@@H](CCC(N)=O)C(=O)N[C@@H](CC(C)C)C(=O)NCC(=O)N[C@@H](CCCNC(=N)N)C(=O)N[C@@H](C(C)C)C(=O)N[C@@H](CC(C)C)C(=O)N[C@@H](CCCNC(=N)N)C(=O)N[C@@H](Cc2c[nH]cn2)C(=O)N1)C(=O)N[C@H](C(=O)N[C@H](C(=O)NCC(=O)NCC(=O)N[C@@H](CCCNC(=N)N)C(=O)N[C@@H](CCSC)C(=O)N[C@@H](CCCNC(=N)N)C(=O)N[C@@H](Cc1ccccc1)C(=O)O)C(C)C)[C@@H](C)O` (H-CFKKVRKQLGRVLRHCSRITVGGRMRF-OH; disulfide 1-16), for which the MIC in [1] is 9.38 µg/mL; in [2] it was 4.69 µg/mL; in [3], 18.8 µg/mL; in [4], 9.38 µg/mL; in data set [5], 9.38 µg/mL. The hemolysis at 100 microg/ml in [6] is below 5%. In addition, the viability at 100 µg/mL in data set [7] and in data set [8] was above 80% each time. In data set [9], the metabolised at 6 h is 68%. In addition, the “inhibition (INH)” value in data set [10] amounted to 80%. Further, the Activity in [11] is reported as 20%. Further, the result in [12] and in data set [22] was Active. Also, the “fold change (FC)” value in data set [13] amounted to 4; in data set [14] it was 4; in data set [15], 16; in data set [16] it was 16; in data set [17], 8; in data set [18] it was 8. The “fold change (FC)” value in data set [19] is 32. The mortality at 24 h in data set [20] turned out to be 0%. In data set [21], the survival at 15 mg/kg was found to be 40%.
